The values below come from ChEMBL document CHEMBL1201862, “PubChem BioAssay data set” (2004).

Several values for one entry are separate records, joined by “and”; a condition that tells them apart may be missing. Equal entries are not always repeated. Activity calls are given as the source filed them. Some results are limits rather than exact numbers.

Test [1] deals with Ubiquitin carboxyl-terminal hydrolase BAP1 (Homo sapiens, UniProt Q92560). Nature of the test: inhibition of BAP1 ubiquitin hydrolase activity – biochemical, dose response (AID 714). It is filed as functional.
In test [2] the target is Heat shock protein HSP 90-alpha (Homo sapiens, UniProt P07900). Nature of the test: Luminescence-based dose response biochemical high throughput screening assay for inhibitors of the Heat Shock Protein 90 (HSP90). [Related pubchem assays: 1831 (Summary AID.), 1846 (Confirmation screen.), 1789 (Primary screen.)].
Test [3] addresses T1, Estrogen receptor beta (Homo sapiens, UniProt Q92731).
Test [4] has as its target T2, Bcl-2-related protein A1 (Mus musculus, UniProt Q07440).
T2 sequence (Q07440 whole entry): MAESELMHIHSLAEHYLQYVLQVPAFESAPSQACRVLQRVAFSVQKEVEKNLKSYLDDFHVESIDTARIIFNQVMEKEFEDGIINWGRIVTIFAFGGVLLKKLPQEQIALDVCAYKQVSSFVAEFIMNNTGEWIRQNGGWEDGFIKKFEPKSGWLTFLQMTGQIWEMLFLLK
Nature of the test: displacement of Bid BH3 peptide from Bfl-1 – biochemical, fluorescence polarization, FITC-Bid, mouse, primary screen (AID 432). (In general: In fluorescence polarisation assays a small probe gives low polarisation when free and higher when bound to something large.)

The target in test [5] is T3, Estrogen receptor (Homo sapiens, UniProt P03372).
T3 sequence (P03372 whole entry): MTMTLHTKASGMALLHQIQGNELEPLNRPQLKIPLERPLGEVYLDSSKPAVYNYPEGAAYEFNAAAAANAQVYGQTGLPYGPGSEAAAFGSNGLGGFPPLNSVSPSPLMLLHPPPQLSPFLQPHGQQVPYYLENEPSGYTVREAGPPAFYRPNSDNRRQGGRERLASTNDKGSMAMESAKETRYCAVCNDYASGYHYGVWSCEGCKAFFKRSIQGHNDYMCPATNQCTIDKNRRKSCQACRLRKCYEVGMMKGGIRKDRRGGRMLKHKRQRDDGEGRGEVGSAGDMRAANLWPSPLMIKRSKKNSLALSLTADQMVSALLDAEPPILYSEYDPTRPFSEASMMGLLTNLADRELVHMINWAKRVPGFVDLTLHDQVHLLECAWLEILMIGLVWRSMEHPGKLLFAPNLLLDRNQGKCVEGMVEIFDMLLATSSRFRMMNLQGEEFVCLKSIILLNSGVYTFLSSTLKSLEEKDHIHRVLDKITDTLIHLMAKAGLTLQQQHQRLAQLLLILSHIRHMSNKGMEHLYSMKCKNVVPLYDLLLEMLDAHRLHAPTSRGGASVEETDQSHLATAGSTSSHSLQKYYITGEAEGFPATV

Test [6] deals with T1, Estrogen receptor beta. Description: blockers of SRC-3 recruitment to ERβ – biochemical, ELISA, streptavidin-HRP readout, orthogonal assay, confirmation (AID 1060). (In general: An ELISA detects its analyte on a solid surface through an enzyme-linked reagent.)
Test [7] addresses T2, Bcl-2-related protein A1. Nature of the test: Bfl-1 binding inhibitors, SAR follow-up, biochemical, fluorescence polarization (AID 1070).
Test [8] deals with T2, Bcl-2-related protein A1. Nature of the test: small-molecule antagonists of Bfl-1/BH3 interaction – biochemical, TR-FRET, mouse Bfl-1, confirmation (AID 621).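 Also: TR-FRET binding of GST-Bfl-1 to FITC-labelled Bid peptide via terbium antibody.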
Test [9] addresses Glyceraldehyde-3-phosphate dehydrogenase (Homo sapiens, UniProt P04406).
Test [10] has as its target T4, Small ubiquitin-related modifier 1 (Homo sapiens, UniProt P63165). Nature of the test: SUMO1 protein-protein binding blockers, potency – biochemical, FRET, dose response (AID 624383). The settings on record: read-out: IC50_Mean. The format is functional.
Test [11] concerns the target T4, Small ubiquitin-related modifier 1. Description: SUMO1 protein interaction blockers, potency – biochemical, fluorescence polarization, uHTS hits, dose response (AID 624382). The format is functional. The note with it: read-out: IC50_Mean.
Test [12] addresses Peroxisome proliferator-activated receptor gamma/Nuclear receptor coactivator 2 (Homo sapiens, UniProt P37231). Nature of the test: TR-FRET dose response biochemical High Throughput Screening assay for agonists of the steroid receptor coactivator 2 (SRC-2) recruitment by the peroxisome proliferator-activated receptor gamma (PPAR gamma): non-selective agonists. [Related pubchem assays: 1297, 1032 ]. The format is functional. On the technique in general: Time-resolved FRET reads energy transfer from a long-lived donor to a nearby acceptor.

For test [13], the target named is Mitogen-activated protein kinase 10 (Homo sapiens, UniProt P53779). Nature of the test: Dose response biochemical screening assay for inhibitors of c-Jun N-Terminal Kinase 3 (JNK3). [Related pubchem assays: 746 ].
Test [14] addresses Peroxisome proliferator-activated receptor gamma/Nuclear receptor coactivator 1 (Homo sapiens, UniProt P37231). Nature of the test: TR-FRET dose response biochemical High Throughput Screening assay for agonists of the steroid receptor coactivator 1 (SRC-1) recruitment by the peroxisome proliferator-activated receptor gamma (PPAR gamma): non-selective agonists. [Related pubchem assays (depositor defined):AID1300, AID1808, AID504735, AID631]. The format is protein assay.

In test [15] the target is Peroxisome proliferator-activated receptor gamma/Nuclear receptor coactivator 3 (Homo sapiens, UniProt P37231). Nature of the test: TR-FRET dose response biochemical High Throughput Screening assay for agonists of the steroid receptor coactivator 3 (SRC-3) recruitment by the peroxisome proliferator-activated receptor gamma (PPAR gamma): non-selective agonists. [Related pubchem assays: 1301 (Confirmation screen.), 1048 (Primary screen.)]. The format is functional.

The test system of test [16] is Vero. Nature of the test: mammalian cell viability reduction – secondary assay, cytotoxicity control for West Nile virus antiviral project, dose response (AID 1650). The format is functional. The settings on record: Chlorocebus sabaeus.
Test [17] in a line: M. tuberculosis H37Rv growth inhibitors, H37Rv strain (AID 1626). It is filed as functional.

Chain of Ubiquitin carboxyl-terminal hydrolase BAP1 (Q92560 whole entry): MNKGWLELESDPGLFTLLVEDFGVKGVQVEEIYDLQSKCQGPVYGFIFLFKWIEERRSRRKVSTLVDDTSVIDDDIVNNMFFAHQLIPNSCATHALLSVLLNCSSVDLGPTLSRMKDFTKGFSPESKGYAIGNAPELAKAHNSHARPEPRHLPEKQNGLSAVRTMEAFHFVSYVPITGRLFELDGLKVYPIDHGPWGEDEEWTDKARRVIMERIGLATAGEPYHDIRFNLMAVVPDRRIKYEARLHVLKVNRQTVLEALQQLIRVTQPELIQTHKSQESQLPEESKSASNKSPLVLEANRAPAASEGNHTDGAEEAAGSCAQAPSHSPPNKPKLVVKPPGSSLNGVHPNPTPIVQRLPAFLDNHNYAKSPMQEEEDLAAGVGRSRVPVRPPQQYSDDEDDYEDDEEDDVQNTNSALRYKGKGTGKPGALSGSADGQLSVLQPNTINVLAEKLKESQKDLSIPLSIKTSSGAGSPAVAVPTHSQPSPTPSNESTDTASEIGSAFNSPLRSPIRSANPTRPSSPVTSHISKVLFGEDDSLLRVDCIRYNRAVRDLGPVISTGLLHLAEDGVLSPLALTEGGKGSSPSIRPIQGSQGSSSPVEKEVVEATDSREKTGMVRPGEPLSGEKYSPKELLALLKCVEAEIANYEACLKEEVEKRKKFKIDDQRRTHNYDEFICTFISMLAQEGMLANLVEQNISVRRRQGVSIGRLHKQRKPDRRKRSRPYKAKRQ
T4 sequence (P63165 whole entry): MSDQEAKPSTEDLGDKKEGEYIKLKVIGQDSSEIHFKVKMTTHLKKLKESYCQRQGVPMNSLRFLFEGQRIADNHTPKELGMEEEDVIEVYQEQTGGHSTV
T1 sequence (Q92731 whole entry): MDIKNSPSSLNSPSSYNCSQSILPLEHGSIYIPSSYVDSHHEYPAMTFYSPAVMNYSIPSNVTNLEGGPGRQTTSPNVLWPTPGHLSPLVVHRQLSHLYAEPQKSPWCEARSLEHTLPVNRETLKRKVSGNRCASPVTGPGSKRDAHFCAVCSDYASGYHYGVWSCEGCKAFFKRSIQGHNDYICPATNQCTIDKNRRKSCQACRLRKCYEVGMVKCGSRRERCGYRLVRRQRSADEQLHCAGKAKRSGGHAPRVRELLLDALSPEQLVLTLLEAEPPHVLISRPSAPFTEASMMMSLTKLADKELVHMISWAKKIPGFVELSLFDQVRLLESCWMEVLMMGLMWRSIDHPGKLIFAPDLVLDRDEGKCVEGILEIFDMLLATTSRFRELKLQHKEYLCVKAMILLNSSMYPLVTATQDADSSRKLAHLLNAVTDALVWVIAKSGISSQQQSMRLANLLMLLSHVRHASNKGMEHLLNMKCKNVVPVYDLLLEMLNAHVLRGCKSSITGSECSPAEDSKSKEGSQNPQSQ
Chain of Mitogen-activated protein kinase 10 (P53779 whole entry): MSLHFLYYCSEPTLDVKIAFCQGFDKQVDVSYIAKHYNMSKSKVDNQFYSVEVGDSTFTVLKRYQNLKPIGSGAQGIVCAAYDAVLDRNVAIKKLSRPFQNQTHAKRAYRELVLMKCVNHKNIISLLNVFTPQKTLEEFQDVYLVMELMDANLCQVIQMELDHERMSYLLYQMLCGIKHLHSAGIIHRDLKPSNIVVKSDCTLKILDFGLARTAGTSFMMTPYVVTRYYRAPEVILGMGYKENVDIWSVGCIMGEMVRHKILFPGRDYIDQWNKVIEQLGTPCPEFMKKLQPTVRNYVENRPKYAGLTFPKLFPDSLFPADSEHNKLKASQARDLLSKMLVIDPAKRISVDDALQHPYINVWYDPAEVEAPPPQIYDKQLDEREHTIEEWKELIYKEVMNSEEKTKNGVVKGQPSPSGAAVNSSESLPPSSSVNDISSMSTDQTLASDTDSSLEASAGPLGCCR
Chain of Glyceraldehyde-3-phosphate dehydrogenase (P04406 whole entry): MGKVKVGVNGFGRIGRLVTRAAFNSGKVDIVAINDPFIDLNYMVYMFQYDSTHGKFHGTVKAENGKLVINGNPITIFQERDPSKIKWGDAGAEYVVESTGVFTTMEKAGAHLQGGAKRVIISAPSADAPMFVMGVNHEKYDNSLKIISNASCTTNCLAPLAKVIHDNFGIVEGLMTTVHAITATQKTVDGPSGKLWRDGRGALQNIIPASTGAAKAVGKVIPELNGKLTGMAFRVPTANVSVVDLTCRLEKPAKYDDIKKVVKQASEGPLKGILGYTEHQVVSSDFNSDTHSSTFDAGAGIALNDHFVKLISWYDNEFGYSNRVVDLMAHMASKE
Chain of Peroxisome proliferator-activated receptor gamma/Nuclear receptor coactivator 2 (P37231 whole entry): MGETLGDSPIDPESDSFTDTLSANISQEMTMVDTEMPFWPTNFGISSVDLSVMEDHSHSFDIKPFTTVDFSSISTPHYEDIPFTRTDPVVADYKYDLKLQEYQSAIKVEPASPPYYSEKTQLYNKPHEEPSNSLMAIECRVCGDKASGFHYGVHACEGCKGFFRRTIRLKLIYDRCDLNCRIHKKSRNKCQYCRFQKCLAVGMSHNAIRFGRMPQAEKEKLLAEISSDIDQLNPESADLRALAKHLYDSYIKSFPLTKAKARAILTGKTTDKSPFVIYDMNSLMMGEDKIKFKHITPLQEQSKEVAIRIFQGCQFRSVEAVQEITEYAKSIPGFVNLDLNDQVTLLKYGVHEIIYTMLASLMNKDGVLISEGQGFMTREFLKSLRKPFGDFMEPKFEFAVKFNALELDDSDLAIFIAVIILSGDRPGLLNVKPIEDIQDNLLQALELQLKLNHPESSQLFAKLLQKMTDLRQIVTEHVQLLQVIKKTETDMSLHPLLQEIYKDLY
Chain of Peroxisome proliferator-activated receptor gamma/Nuclear receptor coactivator 2 (Q15596 whole entry, further chain): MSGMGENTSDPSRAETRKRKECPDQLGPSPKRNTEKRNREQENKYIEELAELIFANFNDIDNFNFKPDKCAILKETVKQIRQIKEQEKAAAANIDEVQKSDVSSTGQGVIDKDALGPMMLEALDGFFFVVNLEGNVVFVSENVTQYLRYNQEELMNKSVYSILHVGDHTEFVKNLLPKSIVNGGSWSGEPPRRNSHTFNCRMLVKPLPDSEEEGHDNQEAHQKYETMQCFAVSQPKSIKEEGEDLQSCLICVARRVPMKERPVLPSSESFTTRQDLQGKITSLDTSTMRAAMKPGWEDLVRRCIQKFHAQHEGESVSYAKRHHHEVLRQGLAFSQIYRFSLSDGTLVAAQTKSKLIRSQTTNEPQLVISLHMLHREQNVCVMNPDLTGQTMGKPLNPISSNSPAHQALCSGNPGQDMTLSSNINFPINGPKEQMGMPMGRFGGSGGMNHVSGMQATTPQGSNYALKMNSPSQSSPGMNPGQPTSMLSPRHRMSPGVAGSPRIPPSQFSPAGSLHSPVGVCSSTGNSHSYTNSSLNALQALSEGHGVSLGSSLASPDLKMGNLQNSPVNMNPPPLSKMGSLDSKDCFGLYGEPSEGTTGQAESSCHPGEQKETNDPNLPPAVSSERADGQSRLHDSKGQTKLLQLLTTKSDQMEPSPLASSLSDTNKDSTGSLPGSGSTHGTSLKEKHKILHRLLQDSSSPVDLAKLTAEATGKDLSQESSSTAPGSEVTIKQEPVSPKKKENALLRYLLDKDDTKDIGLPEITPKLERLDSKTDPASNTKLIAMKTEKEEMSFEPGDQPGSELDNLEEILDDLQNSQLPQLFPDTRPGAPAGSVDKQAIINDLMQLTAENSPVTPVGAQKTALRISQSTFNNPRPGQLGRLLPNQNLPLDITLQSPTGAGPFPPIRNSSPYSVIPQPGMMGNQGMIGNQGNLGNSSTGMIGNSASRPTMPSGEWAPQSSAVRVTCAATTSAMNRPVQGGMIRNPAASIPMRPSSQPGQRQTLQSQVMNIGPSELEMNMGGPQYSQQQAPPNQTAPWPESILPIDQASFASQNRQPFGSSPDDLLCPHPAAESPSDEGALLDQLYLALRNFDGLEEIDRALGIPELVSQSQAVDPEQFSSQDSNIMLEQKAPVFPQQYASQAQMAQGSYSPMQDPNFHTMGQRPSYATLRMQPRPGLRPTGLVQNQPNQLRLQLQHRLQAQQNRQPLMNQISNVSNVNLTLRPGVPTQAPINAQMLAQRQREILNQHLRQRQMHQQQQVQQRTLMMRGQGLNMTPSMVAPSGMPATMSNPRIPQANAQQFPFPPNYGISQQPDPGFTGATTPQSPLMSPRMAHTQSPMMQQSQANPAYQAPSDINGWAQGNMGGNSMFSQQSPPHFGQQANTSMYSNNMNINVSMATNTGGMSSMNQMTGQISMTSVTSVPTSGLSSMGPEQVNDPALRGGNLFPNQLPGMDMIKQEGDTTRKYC

Turning to `CC(=O)C1=C(C)NC(SCC(=O)c2ccc(Cl)c(Cl)c2)=C(C#N)C1c1ccco1` (centres undefined), the IC50 in [1] is given as > 50 µM (not active).

For `COCCn1c(C)cc(C(=O)Cn2nc(C(=O)O)c3ccccc3c2=O)c1C`, the IC50 in [2] was 3.73 µM (active).

Turning to `O=C(Nc1cnn(C23CC4CC(CC(C4)C2)C3)c1)c1cnn2c(C(F)(F)F)cc(-c3ccco3)nc12`, the IC50 is > 50 µM (not active) in test [3]; 11.2 µM (active) in test [4]; 3.64 µM (active) in test [5]; < 0.023 µM (not active) in [6]; 1.69 µM (active) in [7]; 1.76 µM (active) and 12.3 µM (active) in test [8]. For the same molecule, the IC50 in test [9] is given as > 100 µM (not active).

As to `CCOC(=O)c1c(NC(=O)CSc2nnc(CNc3ccc(F)cc3)o2)sc(C)c1C`, the IC50 in [1] was 29.1 µM (active).

As to `O=C(O)c1cccc(NC(=S)NC(NC(=O)c2cccc([N+](=O)[O-])c2)C(Cl)(Cl)Cl)c1` (centres undefined), the figures for the IC50 in test [2], in test [10] and in [11] were 9.85 µM (active), 10.8 µM (active) and > 66.6 µM (inactive), respectively.

In general, EC50 refers to the concentration needed to bring the measured effect to its halfway point. On to `CCOC(=O)CC(=O)CSc1ncnc2c1oc1ccccc12`, for which the EC50 was > 26.5 µM (not active) in test [12], > 79.4 µM (inactive) in [14] and > 79.4 µM (not active) in [15]. The IC50 in [13] is listed as > 31 µM (not active).

What is called CC50 is the concentration giving 50% cytotoxicity. `O=C1/C(=C/c2ccco2)SC(=S)N1CCC(=O)N1CCCCC1CCO` (centres undefined): the CC50 in test [16] was 13.4 µM (active).

Take `O=C(CSc1nnc(-c2ccco2)o1)c1ccccc1Cl`: the IC50 in test [17] was > 100 µM (active).
